Laboratory results taken from patent US12534450B2, “Methods and compositions for targeting PD-L1” (Aligos Therapeutics, Inc., priority 2021, dated 2026).

How the values were obtained:
[1] = tested on: PD-1/PD-L1 interaction; test: PD-1/PD-L1 NFAT Reporter Assay (co-culture of Jurkat T cells overexpressing PD-1 and PD-L1 expressing CHO cells); assay type: cell-based; settings: Homo sapiens, Jurkat, 6 h, co-culture 6 hrs at 37° C., NFAT-mediated luciferase activity
Summary of the method: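 Compounds added to CHO cells expressing surface anti-CD3 and PD-L1, then Jurkat cells with PD-1 and NFAT-driven luciferase seeded on top; co-culture 6 hrs at 37° C. Luminescence read after ONE-Glo addition, EC50 from dose-response fit.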

[2] = target: PD-1/PD-L1 PPI (Homo sapiens, UniProt Q9NZQ7); test: PDL1/PD1 Binding Assay; settings: PDL1-6×His 0.3 nM, PD1-Fc-Avi-Biotin 2.5 nM, Acceptor/Donor beads, Envision reader
Chain of PD-1/PD-L1 PPI (Q9NZQ7 19-238 limits assumed): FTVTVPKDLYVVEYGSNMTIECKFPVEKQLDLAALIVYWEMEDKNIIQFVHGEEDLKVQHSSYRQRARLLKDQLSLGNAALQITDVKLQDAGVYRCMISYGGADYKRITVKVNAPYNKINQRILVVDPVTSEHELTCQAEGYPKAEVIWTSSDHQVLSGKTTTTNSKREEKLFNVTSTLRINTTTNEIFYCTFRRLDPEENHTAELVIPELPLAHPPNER
Summary of the method: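 AlphaScreen competition: compound (1% DMSO) preincubated 30 min RT with PDL1-6×His (0.3 nM), then PD1-Fc-Avi-Biotin (2.5 nM) 30 min; anti-His acceptor and streptavidin donor beads (20 ug/mL each) added, 1 h each, dark up to overnight. Buffer 25 mM Hepes pH 7.4, 150 mM NaCl. IC50 by four-parameter fit.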

EC50 [1] [nM]	IC50 [2] [nM]	SMILES
10 to 100	≤ 10	COc1nc(-c2c(F)ccc(-c3cccc(NC(=O)c4cn(C)c(=O)n(C)c4=O)c3C)c2F)cc2c1[C@@H](NC[C@@H]1CCC(=O)N1)CC2 [Compound A-70]
10 to 100	≤ 10	COc1nc(-c2cccc(-c3cccc(NC(=O)c4cn(C)c(=O)n(C)c4=O)c3Cl)c2Cl)cc2c1C(N1CCN3C(=O)CC[C@H]3C1)CC2 (some centres unmarked) [Compound A-117]
10 to 100	≤ 10	COc1nc(-c2cccc(-c3cccc(NC(=O)c4cn(C)c(=O)n(C)c4=O)c3Cl)c2Cl)cc2c1C(N1CCN3C(=O)CC[C@@H]3C1)CC2 (some centres unmarked) [Compound A-118]
100 to 1000	≤ 10	COc1nc(-c2cccc(-c3cccc(NC(=O)c4cn(C)c(=O)n(C)c4=O)c3Cl)c2Cl)cc2c1C(N1CCC3(CN(C(=O)OC(C)(C)C)C3)C1)CC2 (centres unmarked) [Compound A-119]
10 to 100	≤ 10	COc1nc(-c2cccc(-c3cccc(NC(=O)c4cn(C)c(=O)n(C)c4=O)c3Cl)c2Cl)cc2c1C(N)C(O)C2 (centres unmarked) [Compound A-120]
10 to 100	≤ 10	COc1nc(-c2cccc(-c3cccc(NC(=O)c4cn(C)c(=O)n(C)c4=O)c3C)c2Cl)cc2c1C(NC[C@@H]1CCC(=O)N1)C(C)C2 (some centres unmarked) [Compound A-121]
100 to 1000	≤ 10	COc1nc(-c2cccc(-c3cccc(NC(=O)c4cn(C)c(=O)n(C)c4=O)c3C)c2Cl)cc2c1C(NC[C@@H]1CCC(=O)N1)CC2C (some centres unmarked) [Compound A-122]
10 to 100	≤ 10	COc1nc(-c2cccc(-c3cccc(Nc4ncnc5cccnc45)c3Cl)c2Cl)cc2c1[C@@H](NC[C@@H]1CCC(=O)N1)CC2 [Compound B-2]
100 to 1000	≤ 10	COc1nc(-c2cccc(-c3cccc(Nc4nccc5cccnc45)c3Cl)c2Cl)cc2c1[C@@H](NC[C@@H]1CCC(=O)N1)CC2 [Compound B-3]
10 to 100	≤ 10	COc1nc(-c2cccc(-c3cccc(Nc4nccc5nccnc45)c3Cl)c2Cl)cc2c1[C@@H](NC[C@@H]1CCC(=O)N1)CC2 [Compound B-4]
≤ 10	≤ 10	COc1nc(-c2cccc(-c3cccc(NC(=O)c4cn(C)c(=O)n(C)c4=O)c3Cl)c2Cl)cc2c1C(N1CC(OC)C1)CC2 [Compound D-1]
≤ 10	≤ 10	COc1nc(-c2cccc(-c3cccc(NC(=O)c4cn(C)c(=O)n(C)c4=O)c3Cl)c2Cl)cc2c1C(N1CC(O)C1)CC2 [Compound D-2]
≤ 10	≤ 10	COc1nc(-c2cccc(-c3cccc(NC(=O)c4cn(C)c(=O)n(C)c4=O)c3Cl)c2Cl)cc2c1C(N1CC3(CCNC3=O)C1)CC2 [Compound D-3]
10 to 100	≤ 10	COc1nc(-c2cccc(-c3cccc(NC(=O)c4cn(C)c(=O)n(C)c4=O)c3Cl)c2Cl)cc2c1C(N[C@@H]1COC[C@@H]1O)CC2 (stereo partly drawn) [Compound D-4]
10 to 100	≤ 10	COc1nc(-c2cccc(-c3cccc(NC(=O)c4cn(C)c(=O)n(C)c4=O)c3Cl)c2Cl)cc2c1C(NCCO)CC2 [Compound D-5]
10 to 100	≤ 10	COc1nc(-c2cccc(-c3cccc(NC(=O)c4cn(C)c(=O)n(C)c4=O)c3Cl)c2Cl)cc2c1C(N[C@@H]1CCOC[C@H]1O)CC2 (stereo partly drawn) [Compound D-6]
10 to 100	≤ 10	COc1nc(-c2cccc(-c3cccc(NC(=O)c4cn(C)c(=O)n(C)c4=O)c3Cl)c2Cl)cc2c1C(N[C@H]1CCOC[C@H]1O)CC2 (stereo partly drawn) [Compound D-7]
10 to 100	≤ 10	COc1nc(-c2cccc(-c3cccc(NC(=O)c4cn(C)c(=O)n(C)c4=O)c3C)c2Cl)cc2c1C(NCC(N)=O)CC2 [Compound D-9]
10 to 100	≤ 10	COc1nc(-c2cccc(-c3cccc(NC(=O)c4cn(C)c(=O)n(C)c4=O)c3C)c2Cl)cc2c1C(NC1COC1)CC2 [Compound D-10]
10 to 100	≤ 10	COc1nc(-c2cccc(-c3cccc(NC(=O)c4cn(C)c(=O)n(C)c4=O)c3C)c2Cl)cc2c1C(NC1CC1)CC2 [Compound D-11]
10 to 100	≤ 10	COc1nc(-c2cccc(-c3cccc(NC(=O)c4cn(C)c(=O)n(C)c4=O)c3Cl)c2Cl)cc2c1C(N1CC3(CNC(=O)O3)C1)CC2 [Compound D-15]
100 to 1000	10 to 100	COc1nc(-c2cccc(-c3cccc(NC(=O)c4cn(C)c(=O)n(C)c4=O)c3Cl)c2Cl)cc2c1C(N1CC3(CCN(C(=O)OC(C)(C)C)C3)C1)CC2 [Compound D-16]
10 to 100	≤ 10	COc1nc(-c2cccc(-c3cccc(NC(=O)c4cn(C)c(=O)n(C)c4=O)c3C)c2C)cc2c1C(N1CC(C)(O)C1)CC2 [Compound D-17]
10 to 100	≤ 10	COc1nc(-c2cccc(-c3cccc(NC(=O)c4cn(C)c(=O)n(C)c4=O)c3C)c2C)cc2c1C(N1CC(C)(OC)C1)CC2 [Compound D-18]
100 to 1000	≤ 10	COc1nc(-c2cccc(-c3cccc(NC(=O)c4cn(C)c(=O)n(C)c4=O)c3C)c2C)cc2c1C(N1C[C@@H](O)[C@@H]1C)CC2 (stereo partly drawn) [Compound D-19]
> 10000	≤ 10	CCCCOC(=O)N(C[C@@H]1CCC(=O)N1)[C@H]1CCc2cc(-c3cccc(-c4cccc(NC(=O)c5cn(C)c(=O)n(C)c5=O)c4C)c3Cl)nc(OC)c21 [Compound E-2]
10 to 100	≤ 10	COc1nc(-c2cccc(-c3cccc(NC(=O)c4cn(C)c(=O)n(C)c4=O)c3Cl)c2Cl)cc2c1C(N1CC3(CCNC3)C1)CC2 (centres unmarked) [Compound G-1]
≤ 10	≤ 10	COc1nc(-c2cccc(-c3cccc(NC(=O)c4cn(C)c(=O)n(C)c4=O)c3Cl)c2Cl)cc2c1C(N1CC3(CCN(C(C)=O)C3)C1)CC2 (centres unmarked) [Compound H-1]
